For orientation: EC50 means the concentration that produces a half-maximal response. Higher therefore signals lower potency in that assay.

One assay concerns the target T1, STING WT (Homo sapiens, UniProt Q86WV6, H232R).
T1 construct: expressed in transfected cells
The assay can be described thus: 293T STING digitonin reporter assay (WT haplotype). The format is cell-based. The conditions noted are these: digitonin permeabilised 293T reporter cells. On the procedure:
(§1) Digitonin Assay with 293T Reporter Cells. The generation of 293T reporter cells stably expressing different STING protein haplotypes (WT, HAQ, REF, AQ, or Q) was described previously (Novotna et al, J. Med. Chem. 2019,62, 10676). The cells were seeded at a density of 250 000 cells per cm^2 into 96 well white poly(D-lysine) coated plates in 100 µL of DMEM with high glucose supplemented with 10% heat inactivated FBS. Next day, the medium was removed, and compounds were added in 3-fold serial dilutions in a digitonin buffer containing 50 mM HEPES (pH 7.0), 100 mM KCl, 3 mM MgClz, 0.1 mM DTT, 85 mM sucrose, 0.2% (w/w) BSA, 1 mM ATP, 0.1 mM GTP, and 10 µg/mL digitonin A. After 30 min incubation at 37 °C with 5% CO2, the digitonin buffer was removed, cells were washed once with 100 µL of the cultivation medium, and 100 µL of fresh medium was added to each well. The plates with cells were further incubated for 5 h at 37 °C with 5% CO2. Thereafter, 50 µL of the medium was removed, and 30 µL of Bright-Glo Luciferase Assay System reagent was added to each well. […] Nonlinear regression curve fit with standard slope was used for EC50 value calculations. The EC50 value represents CDN concentration that gives half-maximal response of firefly luciferase in the 293T reporter assay.
(Reporter assays use an easily measured gene product as a stand-in for the process of interest.)

A further assay relates to AH1+ CD8+ T cells. The assay is described as follows: Induction of tumor specific AH1+ CD8 T cells in CT26 model (flow cytometry). In kind it is in vivo, BALB/c mice. The conditions noted are these: blood collected on day 14, i.t. treatment. An excerpt:
The induction of tumor specific AH1+ CD8 T cells was monitored in response to Compound 2.2 treatment. Blood immune cells were collected on day 14 and red blood cells were lysed using red blood cell lysis buffer. Immune cells were immunophenotyped using viability dye (Zombie NIR Fixable Viability Kit, BioLegend) and monoclonal antibodies: BUV395 rat anti-mouse CD19, BUV395 hamster anti-mouse CD49b, APC hamster anti-mouse CD3, BV605 rat anti-mouse CD4, BV510 rat anti-mouse CD8, (all BD Biosciences). Specific staining using MHC-I dextramer: PE labelled AH1 peptide ([…], Immudex) was performed according to the manufacturer's recommendation. Specific and control samples of unstained cells, positive control for dead cells (cells in PBS incubated for 10 min at 65 °C and further stained with a live/dead marker), fluorescence minus one (FMO) and isotype controls (ISO) were prepared. Samples were measured immediately without a fixation step in a single tube format using BD LSRFortessa flow cytometer (BD Biosciences) in 250 µl of FC buffer (PBS containing 5% FBS). Data was acquired using FACS Diva software (version 8.0.1, BD Biosciences). Debris was excluded by forward and side scatter gating followed by doublet and dead cell exclusion. […] The data were analyzed using FlowJo software (version 10, BD Biosciences) and expressed as a frequency (%) of parent population, i.e. CD3+ T cells.
Background: A flow cytometer gives signals particle by particle.

In a further assay the test system is plasma cytokines. The assay is described as follows: In vivo plasma cytokine induction after single i.v. injection (multiplex ELISA, Luminex). The conditions noted are these: single i.v. 1.7mg/kg, Balb/C mice (Fig. 7). On the procedure:
Compound 3.3 was conjugated to the engineered light chain C110 and heavy chain C375 of anti-Her2 mAb (mAb3) as described above (mAb3-3.3). Furthermore, the compound was also conjugated to anti-Her2 mAb (mAb2) via inter-chain Cys (mAb2-3.3). A single intravenous injection of 5 mg/kg mAb2-3.3 (DAR 3.8) and 5 mg/kg mAb3-3.3 (DAR 3.6) was administered to Balb/C mice via tail vein injection. Blood samples were collected from the injected animals at 2, 4, 8, and 20 hours post-injection, and plasma cytokines were measured using multiplex ELISA (Luminex).
Compound 3.3 was conjugated to anti-TROP2 mAb4 via inter-chain Cys and to the engineered light chain C110 and heavy chain C375 of anti-TROP2 mAb5, as described above. […] Blood samples were collected from the injected animals at 2, 4, 8, and 20 hours post-injection, and plasma cytokines were measured using multiplex ELISA (Luminex).
In general terms: An ELISA detects its analyte on a solid surface through an enzyme-linked reagent.

Another assay concerns the target T2, STING HAQ (Homo sapiens, UniProt Q86WV6, G230A/H232R/R293Q/R71H).
T2 construct: expressed in transfected cells
The assay is described as follows: 293T STING digitonin reporter assay (HAQ haplotype). The settings on record: digitonin permeabilised 293T reporter cells. The format is cell-based. How it is done: as §1

T1 sequence (Q86WV6 whole entry H232R): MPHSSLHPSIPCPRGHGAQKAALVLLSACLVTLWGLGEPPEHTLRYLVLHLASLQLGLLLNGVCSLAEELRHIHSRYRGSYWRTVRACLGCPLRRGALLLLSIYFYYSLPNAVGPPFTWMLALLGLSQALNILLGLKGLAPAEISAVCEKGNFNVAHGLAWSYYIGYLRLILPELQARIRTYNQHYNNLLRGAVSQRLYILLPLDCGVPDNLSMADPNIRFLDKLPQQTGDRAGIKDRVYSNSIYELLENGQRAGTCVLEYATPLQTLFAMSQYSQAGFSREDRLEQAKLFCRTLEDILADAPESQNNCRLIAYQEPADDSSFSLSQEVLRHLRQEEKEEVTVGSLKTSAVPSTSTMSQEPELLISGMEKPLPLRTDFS
T2 sequence (Q86WV6 whole entry R71H/G230A/H232R/R293Q): as the sequence (Q86WV6 whole entry H232R) above, with R71H, G230A, R293Q counted along it

As to `Nc1ncnc2c1ncn2[C@@H]1O[C@@H]2OCP(=O)(S)O[C@@H]3[C@H](F)[C@@H](COP(=O)(S)OC[C@H]2[C@H]1F)O[C@H]3n1cnc2c(=O)[nH]cnc21` (single isomer, unassigned) [Compound 2.2], the EC50 at STING WT and at STING HAQ was 20 nM in each case. Moreover, the “frequency of tumor specific CD8 T cell recognizing AH1 peptide compared to the vehicle arm” value in the assay on AH1+ CD8+ T cells was “statistically significantly increased frequency”. Besides, in the assay with plasma cytokines, the plasma cytokine levels result is “high plasma levels”.

Source of the values: patent EP4610267A1, “CYCLIC DINUCLEOTIDES AND CONJUGATES THEREOF WITH ANTIBODIES” (priority 2024, dated 2025).
